The text below walks through data of publication PMC4240915, “Insights into the posttranslational assembly of the Mo-, S- and Cu-containing cluster in the active site of CO dehydrogenase of Oligotropha carboxidovorans” (Journal of Biological Inorganic Chemistry, 2014).

Experiment [1] has as its target T1, CO dehydrogenase (FAD site on CoxM) (Afipia carboxidovorans, UniProt P19920).
T1 construct: native enzyme purified from wild-type O. carboxidovorans OM5; same complex as P1, as isolated with [CuSMoO2] cluster; with Carbon monoxide dehydrogenase large chain; Carbon monoxide dehydrogenase small chain
T1 sequence (P19920 1-288): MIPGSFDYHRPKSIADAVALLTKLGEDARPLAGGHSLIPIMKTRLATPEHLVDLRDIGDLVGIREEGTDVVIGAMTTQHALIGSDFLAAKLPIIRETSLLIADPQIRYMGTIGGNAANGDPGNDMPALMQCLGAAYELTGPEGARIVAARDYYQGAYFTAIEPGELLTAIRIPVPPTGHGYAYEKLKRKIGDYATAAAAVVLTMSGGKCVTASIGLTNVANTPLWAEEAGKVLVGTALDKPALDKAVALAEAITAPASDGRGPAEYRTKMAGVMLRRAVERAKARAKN
T1 sequence (P19919 1-809 partner): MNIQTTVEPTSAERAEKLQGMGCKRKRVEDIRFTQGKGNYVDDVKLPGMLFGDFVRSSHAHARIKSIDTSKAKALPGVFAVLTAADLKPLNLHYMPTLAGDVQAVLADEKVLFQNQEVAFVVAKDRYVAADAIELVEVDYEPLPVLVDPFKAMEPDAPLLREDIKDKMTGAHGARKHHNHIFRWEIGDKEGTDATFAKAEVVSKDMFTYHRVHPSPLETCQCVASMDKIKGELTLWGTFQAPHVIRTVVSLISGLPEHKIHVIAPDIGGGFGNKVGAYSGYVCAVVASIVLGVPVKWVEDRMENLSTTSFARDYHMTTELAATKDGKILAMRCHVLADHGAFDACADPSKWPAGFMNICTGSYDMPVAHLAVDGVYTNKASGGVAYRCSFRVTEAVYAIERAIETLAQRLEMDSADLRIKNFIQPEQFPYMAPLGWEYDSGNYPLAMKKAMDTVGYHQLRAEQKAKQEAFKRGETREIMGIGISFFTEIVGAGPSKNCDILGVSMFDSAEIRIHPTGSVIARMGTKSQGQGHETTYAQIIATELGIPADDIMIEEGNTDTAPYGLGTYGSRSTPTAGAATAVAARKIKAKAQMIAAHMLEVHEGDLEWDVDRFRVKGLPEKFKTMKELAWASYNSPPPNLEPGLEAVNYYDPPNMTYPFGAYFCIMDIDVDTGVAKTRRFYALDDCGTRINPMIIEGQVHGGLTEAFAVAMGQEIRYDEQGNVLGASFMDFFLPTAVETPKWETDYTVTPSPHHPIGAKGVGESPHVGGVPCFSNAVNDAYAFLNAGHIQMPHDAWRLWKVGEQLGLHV
T1 sequence (P19921 1-166 partner): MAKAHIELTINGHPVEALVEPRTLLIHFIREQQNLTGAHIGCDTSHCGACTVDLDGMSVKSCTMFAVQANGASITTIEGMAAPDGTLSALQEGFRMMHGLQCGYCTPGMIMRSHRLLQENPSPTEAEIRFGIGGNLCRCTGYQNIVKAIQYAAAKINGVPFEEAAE
Nature of the experiment: spectrophotometric FAD determination at […] nm after trichloroacetic acid precipitation. It counts as binding. The conditions noted are these: wild-type enzyme from CO-grown cells; co-purified cofactor.

Experiment [2] concerns the target T1, CO dehydrogenase (FAD site on CoxM). Nature of the experiment: photometric assay of CO oxidation with INT as electron acceptor. The conditions noted are these: electron acceptor with CO as electron donor, 30 °C; acceptor site (FAD) not shown in the paper. It counts as biochemical.
Experiment [3] has as its target T2, CO dehydrogenase (molybdenum site on CoxL) (Afipia carboxidovorans, UniProt P19919).
T2 construct: native enzyme purified from O. carboxidovorans OM5; Mo-, Fe-S- and FAD-containing; Cu and sulfane sulfur removed by KCN, then resulfurated to the [MoO2S] form (copper-free); with Carbon monoxide dehydrogenase medium chain; Carbon monoxide dehydrogenase small chain
T2 sequence (P19919 1-809): T1 sequence (P19919 1-809 partner)
T2 sequence (P19921 1-166 partner): T1 sequence (P19921 1-166 partner)
T2 sequence (P19920 1-288 partner): T1 sequence (P19920 1-288)
Nature of the experiment: Mo(V) EPR at […] K. The conditions noted are these: 15 mM ligand, 50 mM HEPES pH 7.2, N2, 25 min room temperature; resulfurated copper-free [MoO2S] enzyme; covalent (mixed disulfide at Mo-bound sulfur). It counts as binding.

Turning to `Cc1cc2nc3c(=O)[nH]c(=O)nc-3n(C[C@H](O)[C@H](O)[C@H](O)COP(=O)(O)OP(=O)(O)OC[C@H]3O[C@@H](n4cnc5c(N)ncnc54)[C@H](O)[C@@H]3O)c2cc1C` [FAD], in experiment [1], the “Wild type (CO)” value is reported as 1.93 ± 0.08 mol per mol. Take `O=[N+]([O-])c1ccc(-[n+]2nc(-c3ccccc3)nn2-c2ccc(I)cc2)cc1` [INT, 1-phenyl-2-(4-iodo-phenyl)-3-(4-nitrophenyl)-2H-tetrazolium chloride]: in experiment [2], the “photometric assay of CO oxidation with INT as electron acceptor” value is recorded as “CO-oxidizing activity was assayed photometrically employing INT”. As for `N[C@@H](CS)C(=O)O` [L-cysteine], the “Mo(V) EPR at 120 K” value in experiment [3] was “SH group of the studied sulfur compounds can bind to the equatorial sulfur of [MoO2S]”.
